# Patent US12221494B2, “Short synthetic peptides and their uses for treating retinal degenerative diseases and/or tissue injuries” (MacKay Memorial Hospital, priority 2019, dated 2025)
# Key:
# [1] = tested on: C57BL/6 mice, dry eye induced in controlled environment chamber (CEC); assay: Dry eye animal model, corneal fluorescein staining; type: in vivo, mouse; conditions: mice 14 days in CEC, then 100 μM peptide eye drop three times a day for 4 days (Day 4); day 0 score 3±0
# Procedure: Dry eyes were induced by placing mice in a controlled environment chamber (CEC) for 14 days in accordance with procedures previously described by Barabino et al (IVOS (2005) 46(8), 2766-2771). Mice placed in the CEC were exposed to a condition, in which relative humidity (RH) was maintained at <25%, temperature at 20-22° C., and airflow at about 15 L/min, for 12 hours per day. Control mice were kept in a normal environment (RH>50%, no air flow, temperature of 20-22° C.) for the same duration.
# A common artificial tear formulation, 1% carboxymethylcelllulose (CMC) dissolved in balanced salt solution (BSS) was used as the peptide vehicle. Peptide (100 μM, about 0.7 μg peptide in 10 μl eye drop used for treating one eye) or 1% CMC vehicle was topically administered to eyes three times a day. To test whether the present synthetic peptide could exert any therapeutic action on dry eyes, mice were housed at CEC for 14 days without topical treatment, and then were treated with the present peptide for 4 days.
# Animals were anesthetized by an intraperitoneal injection of a mixture of zoletil (6 mg/kg) and xylazine (3 mg/kg). Corneal epithelial injury was determined by staining with topical fluorescein (Fluor-I-Strip, Ayerst Laboratories, Philadelphia, PA). Corneal fluorescein staining was examined with a slit-lamp biomicroscope under cobalt blue light and photographed with a digital camera. Dye staining of the cornea was scored in a blinded manner as follows: score 0 for no punctuate staining; score 1 when less than one third of the cornea was stained; score 2 when two thirds or less was stained; and score 3 when more than two thirds was stained (Horwath-Winter J 2013).
# Briefly, mice were housed at controlled environment chamber (CEC) for 14 days (set as Day 0) to induce corneal surface disruption. Corneal fluorescein staining was used to estimate the corneal surface injury and the animal with a staining score of 2 (after mice placed at CEC for 14 days) was subjected to peptide treatment. The 6-mer variant peptide formulation for the treatment of DED was described in Methods. […]
# [2] = tested on: Sprague-Dawley rats, retinal ischemia/reperfusion (I/R) injury; assay: Histological (H&E) evaluation of I/R-induced retinal injury (14 days); type: in vivo; conditions: rat, 14 days after I/R injury
# Procedure: Experimental procedures were approved by the Mackay Memorial Hospital Review Board (Taiwan, R.O.C.). All surgeries were performed under aseptic conditions. Adult 10-week-old male Sprague-Dawley rats (initial body weight=312±11 g) were anesthetized by an intraperitoneal injection of xylazine (10 mg/kg). Peptide was dissolved in 0.85% normal saline to 1 mM and delivered by the subconjunctival injection of 100 μL peptide through a 31-Gneedle with a micro-syringe before the induction of I/R. Normal saline was as a vehicle control. Rat I/R was performed after peptide or vehicle injection for 4 h. Pupils were dilated with 0.5% tropicamide and 0.5% phenylephrine. Body temperature was maintained at 37° C. using a heating blanket After dilation of the pupil, the anterior chamber of the right eye was cannulated with a 27-gauge needle connected to a physiological saline reservoir. The intraocular pressure (IOP) was raised to 110 mmHg by keeping the reservoir at 150 cm above the eye, and retinal ischemia was confirmed by observing whitening of the iris and the loss of the red reflex of the retina. After 90 min of ischemia, the cannulating needle was withdrawn and the IOP was returned to normal pressure, resulting in recovery of the blood supply from the retinal artery and reperfusion injury induced. The reperfusion was evident by the return of the red reflex. Corneal analgesia was achieved using 1 or 2 drops of 0.4% oxybuprocaine hydrochloride, and Ofloxacin ophthalmic gel (0.3%) was applied topically to the eye before and after the procedure. Only the right eye was used in all experiments. A sham procedure was performed at left eye served as an intra-animal control.
# Rats (n=6 in each group) were euthanized using an overdose of pentobarbital (intravenously 100 mg/kg of bodyweight) at 14 days after the I/R injury, the eyeballs were marked at the 12 o'clock position of the cornea with silk suture, and then enucleated and fixed in 4% paraformaldehyde(PFA) at 4° C. for 24 h. After fixation, the anterior segment was removed, and the posterior eyeball containing the optic disc was dehydrated in a graded ethanol series and embedded in paraffin. […] To quantify the degree of I/R damage in the retina, we measured the overall central retinal thicknesses (OT, between the GCL to ONL), the inner nuclear layer (INL), and the outer nuclear layer (ONL). The number of cells in the ganglion cell layer (GCL) was calculated using the linear cell density (cells per 200 μm). Three sections per eye were averaged and the mean of six eyes was recorded as the representative value for each group.
substance,measurement,setting,value
NH2-(D-Ser)-Leu-Gly-Ala-Glu-Gln-COOH (SLGAEQ; HELM PEPTIDE1{[dS].L.G.A.E.Q}$$$$V2.0; SMILES CC(C)C[C@H](NC(=O)[C@H](N)CO)C(=O)NCC(=O)N[C@@H](C)C(=O)N[C@@H](CCC(=O)O)C(=O)N[C@@H](CCC(N)=O)C(=O)O) [6-mer dS],corneal fluorescein staining score,[1],1.4±0.2 score
same,INL Thickness,"[2]; H&E, Control 70.7 ± 2.4, Vehicle + I/R 51.6 ± 0.8",71.3 ± 7.5 μm
same,ONL Thickness,"[2]; H&E, Control 139.8 ± 4.2, Vehicle + I/R 125.8 ± 4.5",133.4 ± 7.7 μm
same,Total Thickness (From GCL to INL),"[2]; H&E, Control 326.2 ± 9.4, Vehicle + I/R 260.8 ± 7.1",308.9 ± 11.2 μm
same,"overall retinal thickness, in words",[2]; single subconjunctival injection,improved the overall retinal thickness to a level similar to that in the shame control group
